Experiment: xn = mol fraction of the nth substance listed
Conditions: Liquid, Vibrating tube method

CCCCCCCCCC [decane] + COC(=O)OC
mass density [kg/m3]
Conditions	100 kPa	10000 kPa	20000 kPa	30000 kPa	40000 kPa
288.15 K, x2 = 0.0676	741.97	749.1	755.73	761.88	767.71
288.15 K, x2 = 0.2303	767.95	775.45	782.4	788.87	794.93
288.15 K, x2 = 0.2934	780.23	787.82	794.87	801.43	807.54
288.15 K, x2 = 0.4055	804.52	812.34	819.59	826.32	832.65
288.15 K, x2 = 0.502	829.72	837.73	844.78	–	–
288.15 K, x2 = 0.5476	843.28	851.4	–	–	–
288.15 K, x2 = 0.665	883.8	–	–	–	–
288.15 K, x2 = 0.7101	901.71	–	–	–	–
288.15 K, x2 = 0.9062	1004.68	1013.19	1021.19	1028.63	1035.61
293.15 K, x2 = 0.0676	738.16	745.45	752.25	758.56	764.48
293.15 K, x2 = 0.2303	763.84	771.54	778.69	785.31	791.49
293.15 K, x2 = 0.2934	775.99	783.79	791.01	797.71	803.97
293.15 K, x2 = 0.4055	799.94	807.99	815.46	822.34	828.8
293.15 K, x2 = 0.502	824.83	833.07	840.72	847.8	854.44
293.15 K, x2 = 0.5476	838.17	846.56	854.35	861.57	868.38
293.15 K, x2 = 0.5883	851.08	859.46	867.28	874.53	–
293.15 K, x2 = 0.665	878.01	886.63	894.64	902.11	–
293.15 K, x2 = 0.7101	896.39	905.11	913.24	920.82	–
293.15 K, x2 = 0.7993	936.74	945.44	953.46	–	–
293.15 K, x2 = 0.9062	998.35	1007.19	1015.43	1023.08	1030.28
298.15 K, x2 = 0.0676	734.31	741.8	748.75	755.23	761.28
298.15 K, x2 = 0.2303	759.7	767.62	774.95	781.73	788.05
298.15 K, x2 = 0.2934	771.64	779.68	787.1	–	800.4
298.15 K, x2 = 0.4055	795.37	803.65	811.3	818.38	825
298.15 K, x2 = 0.502	819.95	828.44	836.29	843.57	850.35
298.15 K, x2 = 0.5476	833.19	841.77	849.77	857.18	864.11
298.15 K, x2 = 0.5883	845.93	854.59	862.62	870.04	876.98
298.15 K, x2 = 0.665	872.69	881.52	889.73	897.31	904.39
298.15 K, x2 = 0.7101	890.82	899.75	908.1	915.87	923.09
298.15 K, x2 = 0.7993	930.88	939.91	948.28	956.06	–
298.15 K, x2 = 0.9062	992.18	1001.24	1009.74	1017.62	1025.01
303.15 K, x2 = 0.0676	730.48	738.15	745.3	751.9	758.05
303.15 K, x2 = 0.2303	755.57	763.68	771.21	778.15	784.61
303.15 K, x2 = 0.2934	767.36	775.58	783.23	790.27	796.82
303.15 K, x2 = 0.4055	790.78	799.32	807.2	814.45	821.19
303.15 K, x2 = 0.502	815.09	823.86	831.94	839.39	846.29
303.15 K, x2 = 0.5476	828.19	837.03	845.25	852.82	859.91
303.15 K, x2 = 0.5883	840.82	849.74	858.02	865.63	872.72
303.15 K, x2 = 0.665	867.33	876.43	884.86	892.63	899.87
303.15 K, x2 = 0.7101	885.21	894.46	903.07	911.02	918.42
303.15 K, x2 = 0.7993	925.09	934.41	943.03	951.01	958.41
303.15 K, x2 = 0.9062	985.93	995.33	1004.09	1012.2	1019.78
308.15 K, x2 = 0.0676	726.53	734.45	741.78	–	–
308.15 K, x2 = 0.2303	751.35	759.73	767.45	–	–
308.15 K, x2 = 0.2934	763	771.51	779.37	–	–
308.15 K, x2 = 0.4055	786.2	794.99	803.1	–	–
308.15 K, x2 = 0.502	810.29	819.3	–	–	–
308.15 K, x2 = 0.5476	823.17	832.33	–	–	–
308.15 K, x2 = 0.5883	835.71	844.95	–	–	–
308.15 K, x2 = 0.665	861.96	871.37	–	–	–
308.15 K, x2 = 0.7101	879.57	889.19	–	–	–
308.15 K, x2 = 0.7993	919.3	928.93	–	–	–
308.15 K, x2 = 0.9062	979.75	989.47	–	–	–

Source: the NIST ThermoML archive (doi:10.1021/je0342320)
